Results published in US20100151452A1, “Methods and Systems for Searching for Regulators of the Fer Protein and for Monitoring the Effects of the Fer Protein” (priority 2006, published 2010).

Tested on: CDK2
Assay: Western blot of CDK2 level
Type: cell-based, human
Settings: PC3 cells, simultaneous exposure to fer-siRNA and cycloheximide 10 μg/ml 4 h
Experimental: For treatment with cycloheximide, PC3 cells transfected with siRNA for 72 h, were subjected to 10 μg/ml cycloheximide for additional 4 h, at the end of the transfection process.
Whole cell lysates (WCL) were prepared as described before (Salem et al., 2005). For Western blot analysis, 20-30 μg proteins from each sample were resolved in 7-12% SDS-PAGE. Electroblotted proteins were detected using specific anti-Fer antibodies (Priel-Halachmi et al., 2000), anti-CDK2 (sc-6248, Santa Cruz), anti-CDK1 (sc-54, Santa Cruz), anti-CDK4 (610148, BD Biosciences), anti-CDK6 (554086, BD Biosciences), anti-CDK7 (sc-856, Santa Cruz), anti-cyclin A (sc-751, Santa Cruz), anti-cyclin D1 (sc-6281, Santa Cruz), anti-cyclin E (sc-247, Santa Cruz), anti-cyclin H (sc-1662, Santa Cruz), anti-pRB (sc-102, Santa Cruz), anti-phosphosthreonine^821-pRB (pThr821) (44-582, Biosource), anti-phosphoserine^795-pRB (pSer795) (sc-7986-R, Santa Cruz), anti-phosphoserine^780-pRB (pSer780) (9307, Cell Signaling), anti-phosphoserine^807/811-pRB (pSer807/811) (9308, Cell Signaling), anti-PP1α (2582, Cell Signaling), anti-PP1 (sc-443, Santa Cruz), anti-phosphothreonine^320-PP1α (pThr320) (2581, Cell Signaling), anti-p21Cip1 (sc-6246, Santa Cruz), anti-p27Kip1 (sc-528, Santa Cruz), anti-HA (NMS-101R, Covance), anti-Myc (13-2500, Zymed), and anti-Actin antibody (A 4700, Sigma). […]

C[C@@H]1C[C@@H]([C@H](O)CC2CC(=O)NC(=O)C2)C(=O)[C@@H](C)C1 [cycloheximide]
effect on the fer-siRNA induced decrease of the level of CDK2: alleviated this effect
